Reference: publication PMC10202811 (Nature Medicine, 2023)
Values joined by “and” are separate entries in the source; they are usually repeats but may differ in a detail not shown here. Equal entries are not always repeated. Where two headings read alike, the source gives them in different places.

Experiment: Plasma pharmacokinetics of lorlatinib at steady state (LC-MS/MS, non-compartmental analysis)
Format: in vivo, human
Design: Vz_F / Cmax_D / AUMClast / AUMC_TAU: unit not given here
Details: for Tlag: unit assumed
Source text: Lorlatinib was isolated from human plasma by a liquid-iquid extraction procedure. […] A linear-log trapezoidal method was used [NT] A best-fit method was used to estimate terminal elimination and to extrapolate any plasma concentration versus time profiles to compute [NT].

[1] = Cycle 1 Day 1, Cohort B2, 115 mg/m2 per dose
[2] = Cycle 1 Day 1, Cohort A1, 45 mg/m2 per dose, individual patients
[3] = Cycle 1 Day 1, Cohort A1, 60 mg/m2 per dose, individual patients
[4] = Cycle 1 Day 1, Cohort A1, 75 mg/m2 per dose, individual patients
[5] = Cycle 1 Day 1, Cohort A1, 95 mg/m2 per dose, individual patients
[6] = Cycle 1 Day 1, Cohort A1, 115 mg/m2 per dose, individual patients
[7] = Cycle 1 Day 1, Cohort A2, 100 mg per dose, individual patients
[8] = Cycle 1 Day 1, Cohort A2, 150 mg per dose, individual patients
[9] = Cycle 1 Day 1, Cohort A2, 150 mg per dose, individual patients, in ng/mL
[10] = Cycle 1 Day 1, Cohort A2, 150 mg per dose, individual patients, in ng·h/mL (unit assumed)
[11] = Cycle 1 Day 1, Cohort A2, 150 mg per dose, individual patients, listed as lorlatinib, in h (unit assumed)
[12] = Cycle 1 Day 1, patient N0773, Cohort B2, 115 mg/m2 per dose, Dose 75
[13] = Cycle 1 Day 15, Cohort A1, 95 mg/m2 per dose
[14] = Cycle 1 Day 15, Cohort A1, 95 mg/m2 per dose, in h (unit assumed)
[15] = Cycle 1 Day 15, Cohort A1, 115 mg/m2 per dose
[16] = Cycle 1 Day 15, Cohort A2, 150 mg per dose
[17] = Cycle 1 Day 15, Cohort A2, 150 mg per dose, in h (unit assumed)
[18] = Cycle 1 Day 15, Cohort A2, 150 mg per dose, in ng·h/mL (unit assumed)
[19] = Cycle 1 Day 15, Cohort B2, 95 mg/m2 per dose
[20] = Cycle 1 Day 15, Cohort B2, 95 mg/m2 per dose, in h (unit assumed)
[21] = Cycle 1 Day 15, Cohort B2, 95 mg/m2 per dose, in ng/mL
[22] = Cycle 1 Day 15, Cohort B2, 95 mg/m2 per dose, in ng·h/mL (unit assumed)
[23] = Cycle 1 Day 15, Cohort B2, 115 mg/m2 per dose
[24] = Cycle 1 Day 15, Cohort A1, 45 mg/m2 per dose, individual patients
[25] = Cycle 1 Day 15, Cohort A1, 45 mg/m2 per dose, individual patients, in h (unit assumed)
[26] = Cycle 1 Day 15, Cohort A1, 60 mg/m2 per dose, individual patients
[27] = Cycle 1 Day 15, Cohort A1, 60 mg/m2 per dose, individual patients, in h (unit assumed)
[28] = Cycle 1 Day 15, Cohort A1, 75 mg/m2 per dose, individual patients
[29] = Cycle 1 Day 15, Cohort A1, 75 mg/m2 per dose, individual patients, in h (unit assumed)
[30] = Cycle 1 Day 15, Cohort A1, 75 mg/m2 per dose, individual patients, in ng·h/mL (unit assumed)
[31] = Cycle 1 Day 15, Cohort A1, 95 mg/m2 per dose, individual patients
[32] = Cycle 1 Day 15, Cohort A1, 95 mg/m2 per dose, individual patients, in h (unit assumed)
[33] = Cycle 1 Day 15, Cohort A1, 115 mg/m2 per dose, individual patients

Molecule `C[C@H]1Oc2cc(cnc2N)-c2c(nn(C)c2C#N)CN(C)C(=O)c2ccc(F)cc21` [Lorlatinib, (10R)-7-amino-12-fluoro-2,10,16-trimethyl-15-oxo-10,15,16,17-tetrahydro-2H-8,4-(metheno)pyrazolo[4,3-h][2,5,11]-benzoxadiazacyclotetradecine-3-carbonitrile] has a Tlag (Cycle 1 Day 1, Cohort A2, 150 mg per dose) of 0 h, a Tlag (Cycle 1 Day 1, Cohort B2, 95 mg/m2 per dose) of 0 h and a Tlast [1] of 24 h. The Tmax (Cycle 1 Day 1, Cohort B2, 115 mg/m2 per dose, in h (unit assumed)) was 1, the Tmax (Cycle 1 Day 1, Cohort B2, 115 mg/m2 per dose, listed as lorlatinib, in h (unit assumed)) was 2 and the Tlag [1] was 0 h. For the same molecule, the Tlast [2] was 24 h, the Tmax (Cycle 1 Day 1, Cohort A1, 45 mg/m2 per dose, individual patients, in h (unit assumed)) was 2 and the Tlag [2] was 0 h. It also gave a Tlast [3] of 24 h, a Tlag [3] of 0 h and a Tlast [4] of 24 h. It also gave a Tmax (Cycle 1 Day 1, Cohort A1, 75 mg/m2 per dose, individual patients, in h (unit assumed)) of 2, a Cmax (Cycle 1 Day 1, Cohort A1, 75 mg/m2 per dose, individual patients, in ng/mL) of 779 and a Tlag [4] of 0 h. For the same molecule, the Tlast [5] was 24 h, the Tlag [5] was 0 h and the AUMClast [6] was 125336.7763. For the same molecule, the Cmax_D [6] was 11.08, the Tlast [6] was 24 h and the Clast (Cycle 1 Day 1, Cohort A1, 115 mg/m2 per dose, individual patients, in ng/mL) was 172. The Tlag [6] was 0 h, the Tlast [7] was 24 h and the Tmax (Cycle 1 Day 1, Cohort A2, 100 mg per dose, individual patients, in h (unit assumed)) was 2. The Tlag [7] was 0 h, the AUMClast [8] was 49463.3786 and 88733.21472 and 92632.60987 and the Cmax_D [8] was 3.76 and 5.527 and 7.067. For the same molecule, the Tlast [8] was 24 h, the Tmax (Cycle 1 Day 1, Cohort A2, 150 mg per dose, individual patients, in h (unit assumed)) was 2 and the Clast [9] was 70.8 and 151 and 127. For the same molecule, the Cmax [9] was 829 and 1060, the AUCall [10] was 9320 and 11097.69267 and the AUClast [10] was 9320 and 11097.69267. For the same molecule, the MRTlast [11] was 9.52 and 8.347, the Tmax [11] was 2 and the Tlag [8] was 0 h. The AUMClast [12] was 89144.88493, the Cmax_D [12] was 22.13 and the Tlast [12] was 24 h. It also gave a Tlag [12] of 0 h, an AUC_TAU_%Extrap [13] of 0% and a Tlast [13] of 24 h. For the same molecule, the Tmax [14] was 1, the Tmin [14] was 0 and the Cavg (Cycle 1 Day 15, Cohort A1, 95 mg/m2 per dose, in ng/mL) was 288.1. For the same molecule, the Tlag [13] was 0 h, the AUC_TAU_%Extrap [15] was 0% and the Tlast [15] was 24 h. It also gave a Tmin (Cycle 1 Day 15, Cohort A1, 115 mg/m2 per dose, in h (unit assumed)) of 0, a Tlag [15] of 0 h and an AUC_TAU_%Extrap [16] of 0%. The AUMC_TAU [16] was 48864.79941 and 48509.22474 and 72138.31531 and 51031.1075 and 68396.67554 and 68306.96584 and 82226.35285, the Accumulation_Index [16] was 1.404 and 1.221 and 1.584 and 1.215 and 1.756 and 1.451 and 1.861 and the CLss_F [16] was 30.01 and 26.36 and 19.5 and 22.81 and 21.08 and 21.41 and 18.08. The Tlast [16] was 24 h, the Vz_F [16] was 578.5 and 370.3 and 469.1 and 316.3 and 600.6 and 439.8 and 562.8 and the Tmax [17] was 1. The Tmin [17] was 0, the Cavg (Cycle 1 Day 15, Cohort A2, 150 mg per dose, in ng/mL) was 208.3 and 237.1 and 320.6 and 274 and 296.5 and 291.9 and 345.7 and the AUC_TAU [18] was 5690 and 7694 and 6577 and 7116 and 7005. For the same molecule, the AUCall [18] was 5690 and 7694 and 6577 and 7116 and 7005, the AUClast [18] was 5690 and 7694 and 6577 and 7116 and 7005 and 8297 and the Tmax (Cycle 1 Day 15, Cohort A2, 150 mg per dose, read-out: Tmax) was 1 h (4×) and 2 h. It also gave a Tlag [16] of 0 h, an AUC_%Extrap_obs [19] of 3.629% and an AUC_%Extrap_pred [19] of 3.558%. The AUC_TAU_%Extrap [19] was 0%, the Accumulation_Index [19] was 1.029 and the Tlast [19] was 24 h. The Vz_F [19] was 73.35, the HL_Lambda_z [20] was 4.68 and the Tmax [20] was 2. For the same molecule, the Tmin [20] was 0, the Lambda_z (Cycle 1 Day 15, Cohort B2, 95 mg/m2 per dose, in h-1 (unit assumed)) was 0.1481 and the Clast_pred [21] was 30.18. The Cmax [21] was 721, the AUC_TAU [22] was 5523 and the AUCall [22] was 5523. It also gave an AUClast [22] of 5523, a Tlag [19] of 0 h and an AUC_TAU_%Extrap [23] of 0%. For the same molecule, the Tlast [23] was 24 h, the Tmax (Cycle 1 Day 15, Cohort B2, 115 mg/m2 per dose, in h (unit assumed)) was 1 and the Tmax (Cycle 1 Day 15, Cohort B2, 115 mg/m2 per dose, listed as lorlatinib, in h (unit assumed)) was 2. The Tlag [23] was 0 h, the AUC_TAU_%Extrap [24] was 0% and the Tlast [24] was 24 h. For the same molecule, the Vz_F [24] was 335.3, the Tmax [25] was 2 and the Tmin [25] was 0. The Tlag [24] was 0 h, the AUC_TAU_%Extrap [26] was 0% and the Tlast [26] was 24 h. It also gave a Tmax [27] of 2, a Tmin [27] of 0 and a Cmax (Cycle 1 Day 15, Cohort A1, 60 mg/m2 per dose, individual patients, in ng/mL) of 343. The Tlag [26] was 0 h, the AUC_TAU_%Extrap [28] was 0% and the Tlast [28] was 24 h. It also gave an MRTINF_obs [29] of 9.338, an MRTINF_pred [29] of 9.311 and a Tmin [29] of 0. It also gave an AUCINF_obs [30] of 3021, an AUCINF_pred [30] of 3018 and a Tlag [28] of 0 h. For the same molecule, the AUC_TAU_%Extrap [31] was 0%, the Tlast [31] was 24 h and the MRTINF_obs [32] was 11.95. For the same molecule, the MRTINF_pred [32] was 11.86, the Tmax [32] was 2 and the Tmin [32] was 0. For the same molecule, the Tlag [31] was 0 h, the AUC_%Extrap_obs [33] was 23.66% and the AUC_%Extrap_pred [33] was 23.4%. It also gave an AUC_TAU_%Extrap [33] of 0%, an AUMC_TAU [33] of 68314.30452 and an Accumulation_Index [33] of 1.333. For the same molecule, the CLss_F [33] was 15.84, the Cmax_D [33] was 10.38 and the Fluctuation% [33] was 351.8%. For the same molecule, the Fluctuation%_Tau [33] was 351.8%.
